One assay relates to RPS6KA3/RSK2. Put plainly: DiscoverX scanMAX competition binding assay. Also on record: species or system human. The text has this:
(§1) Based on its narrow profile when tested in the combined Nanosyn and TSA panels, GW296115 was included in the recently released Kinase Chemogenomic Set (KCGS)[15]. All of the data presented in the Introduction section was collected prior to the inclusion of GW296115 in KCGS and everything that follows has been subsequently generated. Since its inclusion in PKIS and more recently KCGS, we have carried out a broader round of screening at DiscoverX. This profiling data has not been previously released and is reported here for the first time. GW296115 was profiled against 403 wild type human kinases at 1 μM using the DiscoverX scanMAX screening platform, which employs an active site-directed competition binding assay to quantitatively measure interactions between test compounds and kinases, [16]. GW296115 inhibited 25 kinases > 90% at 1 μM, resulting in a selectivity index (S10) of 0.062 at 1 μM (Table S2, Fig. 1C)[17].
(§2) The scanMAX assays were performed at Eurofins DiscoverX Corporation as previously described.

The test system of assay [1] is cytoplasmic domain of PDGFR. Further details: method as in PMID 10048786. The conditions noted are these: insect cells; read-out: IC50, autophosphorylation of the cytoplasmic domain of PDGFR in insect cells; cited from earlier work.
A further assay deals with AXL (Homo sapiens, UniProt P30530). Put plainly: DiscoverX scanMAX competition binding assay. Also on record: purchased Eurofins DiscoverX Corporation.
Sequence of AXL (P30530 26-894): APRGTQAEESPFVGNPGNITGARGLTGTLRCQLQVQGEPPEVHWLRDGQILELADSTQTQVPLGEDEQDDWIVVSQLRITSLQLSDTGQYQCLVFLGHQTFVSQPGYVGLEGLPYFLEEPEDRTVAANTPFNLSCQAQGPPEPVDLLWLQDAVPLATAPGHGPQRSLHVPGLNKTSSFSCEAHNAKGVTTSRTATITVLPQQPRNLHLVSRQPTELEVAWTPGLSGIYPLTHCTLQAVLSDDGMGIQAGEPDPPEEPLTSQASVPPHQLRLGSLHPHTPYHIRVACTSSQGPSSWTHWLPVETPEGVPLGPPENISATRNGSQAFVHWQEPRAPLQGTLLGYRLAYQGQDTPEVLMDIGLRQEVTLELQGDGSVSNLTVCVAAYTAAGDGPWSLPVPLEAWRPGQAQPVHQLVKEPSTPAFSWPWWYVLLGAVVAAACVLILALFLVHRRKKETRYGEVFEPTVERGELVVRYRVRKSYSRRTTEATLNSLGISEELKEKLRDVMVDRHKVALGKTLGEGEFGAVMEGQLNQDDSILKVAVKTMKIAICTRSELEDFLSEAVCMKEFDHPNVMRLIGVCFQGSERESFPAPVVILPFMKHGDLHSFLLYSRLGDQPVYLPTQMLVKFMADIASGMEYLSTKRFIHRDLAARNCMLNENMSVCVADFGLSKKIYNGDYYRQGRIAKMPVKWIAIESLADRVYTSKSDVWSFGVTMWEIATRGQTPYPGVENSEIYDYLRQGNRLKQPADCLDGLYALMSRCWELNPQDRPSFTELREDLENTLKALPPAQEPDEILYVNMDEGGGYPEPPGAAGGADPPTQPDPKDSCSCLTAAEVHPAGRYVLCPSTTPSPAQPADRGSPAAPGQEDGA
Text: as §1, §2

Assay [2] deals with T1, BRSK1 (Homo sapiens, UniProt Q8TDC3).
T1 sequence (Q8TDC3 1-778): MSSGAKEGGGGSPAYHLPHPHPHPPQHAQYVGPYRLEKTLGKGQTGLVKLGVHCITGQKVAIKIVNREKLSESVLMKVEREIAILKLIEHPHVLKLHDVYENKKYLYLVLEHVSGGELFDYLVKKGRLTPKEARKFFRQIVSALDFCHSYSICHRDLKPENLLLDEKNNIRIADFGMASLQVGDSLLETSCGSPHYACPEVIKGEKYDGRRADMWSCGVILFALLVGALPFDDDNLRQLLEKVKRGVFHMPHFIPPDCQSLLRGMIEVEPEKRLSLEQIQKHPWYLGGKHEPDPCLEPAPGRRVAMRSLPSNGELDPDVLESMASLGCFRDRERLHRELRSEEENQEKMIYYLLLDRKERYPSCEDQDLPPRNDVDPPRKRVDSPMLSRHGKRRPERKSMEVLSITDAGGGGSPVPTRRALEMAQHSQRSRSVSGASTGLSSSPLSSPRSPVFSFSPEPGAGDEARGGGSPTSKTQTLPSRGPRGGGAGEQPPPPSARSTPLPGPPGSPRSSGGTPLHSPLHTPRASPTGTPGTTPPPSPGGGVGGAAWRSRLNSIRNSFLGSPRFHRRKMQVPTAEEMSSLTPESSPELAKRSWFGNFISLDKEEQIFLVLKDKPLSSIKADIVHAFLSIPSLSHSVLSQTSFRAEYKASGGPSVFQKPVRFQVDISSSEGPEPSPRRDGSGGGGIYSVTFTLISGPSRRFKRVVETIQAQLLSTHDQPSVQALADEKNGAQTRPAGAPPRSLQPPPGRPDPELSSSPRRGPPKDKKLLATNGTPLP
Put plainly: DiscoverX scanMAX competition binding assay. Further details: purchased Eurofins DiscoverX Corporation.
Text: as §1, §2

Another assay addresses DAPK1 (Homo sapiens, UniProt P53355). Put plainly: DiscoverX scanMAX competition binding assay. Further details: purchased Eurofins DiscoverX Corporation.
Text: as §1, §2

The target in a further assay is DCLK3/DCAMKL3 (Homo sapiens, UniProt Q9C098). Put plainly: DiscoverX scanMAX competition binding assay. Also on record: purchased Eurofins DiscoverX Corporation.
Sequence of DCLK3/DCAMKL3 (Q9C098 whole entry): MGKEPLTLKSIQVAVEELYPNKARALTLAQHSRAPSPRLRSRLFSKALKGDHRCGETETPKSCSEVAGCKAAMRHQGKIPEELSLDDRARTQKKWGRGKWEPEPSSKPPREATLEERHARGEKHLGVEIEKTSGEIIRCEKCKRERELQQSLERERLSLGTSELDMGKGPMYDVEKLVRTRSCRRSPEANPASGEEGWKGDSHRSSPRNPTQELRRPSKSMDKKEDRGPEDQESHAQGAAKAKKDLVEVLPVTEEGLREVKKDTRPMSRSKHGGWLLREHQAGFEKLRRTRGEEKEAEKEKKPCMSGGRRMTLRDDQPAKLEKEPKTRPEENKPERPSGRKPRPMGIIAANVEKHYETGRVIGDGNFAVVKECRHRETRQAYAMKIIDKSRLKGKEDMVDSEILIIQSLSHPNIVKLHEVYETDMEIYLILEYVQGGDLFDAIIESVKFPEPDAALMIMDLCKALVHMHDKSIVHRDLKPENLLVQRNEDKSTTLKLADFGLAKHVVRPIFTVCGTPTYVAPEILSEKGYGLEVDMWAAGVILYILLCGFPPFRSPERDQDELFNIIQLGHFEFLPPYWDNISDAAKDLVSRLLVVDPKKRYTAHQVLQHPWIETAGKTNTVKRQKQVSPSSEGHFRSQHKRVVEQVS
Text: as §1, §2

For another assay, the target named is DMPK (Homo sapiens, UniProt Q09013). Put plainly: DiscoverX scanMAX competition binding assay. Also on record: purchased Eurofins DiscoverX Corporation.
Sequence of DMPK (Q09013 whole entry): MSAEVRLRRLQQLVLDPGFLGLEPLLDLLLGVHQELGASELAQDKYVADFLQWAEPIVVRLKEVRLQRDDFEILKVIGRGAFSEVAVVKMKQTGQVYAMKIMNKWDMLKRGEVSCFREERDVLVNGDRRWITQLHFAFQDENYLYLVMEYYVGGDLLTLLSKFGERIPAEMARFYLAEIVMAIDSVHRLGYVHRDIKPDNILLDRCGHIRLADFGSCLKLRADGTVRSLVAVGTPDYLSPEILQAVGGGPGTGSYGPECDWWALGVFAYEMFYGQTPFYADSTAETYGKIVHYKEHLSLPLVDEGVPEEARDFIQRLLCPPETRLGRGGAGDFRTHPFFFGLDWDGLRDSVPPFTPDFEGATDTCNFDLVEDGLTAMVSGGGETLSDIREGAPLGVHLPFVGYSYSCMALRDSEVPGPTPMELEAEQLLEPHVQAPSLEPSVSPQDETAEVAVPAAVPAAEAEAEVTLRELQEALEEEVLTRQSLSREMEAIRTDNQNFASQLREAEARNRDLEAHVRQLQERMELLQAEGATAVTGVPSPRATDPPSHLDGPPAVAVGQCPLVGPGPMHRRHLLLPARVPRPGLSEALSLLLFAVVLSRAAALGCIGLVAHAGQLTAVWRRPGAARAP
Text: as §1, §2

The target in the next assay is NUAK1/ARK5 (Homo sapiens, UniProt O60285). Put plainly: DiscoverX scanMAX competition binding assay. Also on record: purchased Eurofins DiscoverX Corporation.
Sequence of NUAK1/ARK5 (O60285 whole entry): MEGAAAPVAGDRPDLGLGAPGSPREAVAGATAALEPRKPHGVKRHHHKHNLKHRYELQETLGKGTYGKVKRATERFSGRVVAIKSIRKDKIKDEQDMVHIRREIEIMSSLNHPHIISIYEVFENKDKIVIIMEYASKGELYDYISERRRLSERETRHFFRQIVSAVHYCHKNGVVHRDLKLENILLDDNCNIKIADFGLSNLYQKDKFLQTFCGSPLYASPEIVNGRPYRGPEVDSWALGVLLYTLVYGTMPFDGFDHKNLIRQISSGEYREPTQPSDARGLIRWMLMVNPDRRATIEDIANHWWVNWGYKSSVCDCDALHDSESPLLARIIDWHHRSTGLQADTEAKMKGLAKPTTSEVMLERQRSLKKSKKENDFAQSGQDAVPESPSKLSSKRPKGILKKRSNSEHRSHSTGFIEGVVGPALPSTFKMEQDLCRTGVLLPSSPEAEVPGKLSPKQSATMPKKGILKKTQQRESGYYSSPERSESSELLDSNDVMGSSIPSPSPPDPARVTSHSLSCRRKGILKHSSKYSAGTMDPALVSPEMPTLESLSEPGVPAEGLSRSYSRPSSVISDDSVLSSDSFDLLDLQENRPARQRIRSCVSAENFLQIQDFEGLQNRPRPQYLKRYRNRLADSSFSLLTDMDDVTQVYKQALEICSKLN
Text: as §1, §2

A further assay addresses PHKG1 (Homo sapiens, UniProt Q16816). Put plainly: DiscoverX scanMAX competition binding assay. Further details: purchased Eurofins DiscoverX Corporation.
Text: as §1, §2

The next assay deals with PIM2 (Homo sapiens, UniProt Q9P1W9). Put plainly: DiscoverX scanMAX competition binding assay. Further details: purchased Eurofins DiscoverX Corporation.
Sequence of PIM2 (Q9P1W9 whole entry): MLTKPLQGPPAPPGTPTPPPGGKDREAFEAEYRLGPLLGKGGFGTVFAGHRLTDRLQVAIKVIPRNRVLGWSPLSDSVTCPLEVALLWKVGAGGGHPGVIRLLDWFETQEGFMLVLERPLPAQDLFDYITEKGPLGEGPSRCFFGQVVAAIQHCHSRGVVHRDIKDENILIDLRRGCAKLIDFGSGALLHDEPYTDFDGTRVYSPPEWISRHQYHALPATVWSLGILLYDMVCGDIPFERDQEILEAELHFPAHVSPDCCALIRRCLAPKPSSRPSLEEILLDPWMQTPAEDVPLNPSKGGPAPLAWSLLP
Text: as §1, §2

A further assay addresses ROS1 (Homo sapiens, UniProt P08922). Put plainly: DiscoverX scanMAX competition binding assay. Also on record: purchased Eurofins DiscoverX Corporation.
Text: as §1, §2

A further assay deals with SGK3 (Homo sapiens, UniProt Q96BR1). Put plainly: DiscoverX scanMAX competition binding assay. Also on record: purchased Eurofins DiscoverX Corporation.
Sequence of SGK3 (Q96BR1 whole entry): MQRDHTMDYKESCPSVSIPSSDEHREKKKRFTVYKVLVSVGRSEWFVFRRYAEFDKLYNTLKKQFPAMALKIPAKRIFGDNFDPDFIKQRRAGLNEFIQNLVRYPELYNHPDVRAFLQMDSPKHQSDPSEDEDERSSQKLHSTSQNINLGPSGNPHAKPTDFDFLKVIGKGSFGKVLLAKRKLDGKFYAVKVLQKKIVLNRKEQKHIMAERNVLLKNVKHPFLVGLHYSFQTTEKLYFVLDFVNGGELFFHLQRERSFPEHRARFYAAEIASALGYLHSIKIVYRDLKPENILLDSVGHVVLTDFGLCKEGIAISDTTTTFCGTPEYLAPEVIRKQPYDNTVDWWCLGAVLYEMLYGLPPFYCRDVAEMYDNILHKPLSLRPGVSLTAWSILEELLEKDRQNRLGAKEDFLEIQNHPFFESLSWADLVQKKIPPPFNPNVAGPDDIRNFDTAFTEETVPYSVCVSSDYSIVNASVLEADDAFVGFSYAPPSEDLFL
Text: as §1, §2

The target in assay [3] is T1, BRSK1. Further details: purchased Eurofins DiscoverX Corporation; method as in earlier work. The conditions noted are these: cited from earlier work.
In a further assay the target is PIM3 (Homo sapiens, UniProt Q86V86). Also on record: purchased Eurofins DiscoverX (scanMAX) / Eurofins enzymatic assays; method as in earlier work. The note with it: cited from earlier work.

What is called IC50 is the midpoint of a concentration-inhibition curve. One may read the inhibition as how much of the control response was suppressed. Read a low inhibition as a weak effect.

Sequence of PHKG1 (Q16816 whole entry): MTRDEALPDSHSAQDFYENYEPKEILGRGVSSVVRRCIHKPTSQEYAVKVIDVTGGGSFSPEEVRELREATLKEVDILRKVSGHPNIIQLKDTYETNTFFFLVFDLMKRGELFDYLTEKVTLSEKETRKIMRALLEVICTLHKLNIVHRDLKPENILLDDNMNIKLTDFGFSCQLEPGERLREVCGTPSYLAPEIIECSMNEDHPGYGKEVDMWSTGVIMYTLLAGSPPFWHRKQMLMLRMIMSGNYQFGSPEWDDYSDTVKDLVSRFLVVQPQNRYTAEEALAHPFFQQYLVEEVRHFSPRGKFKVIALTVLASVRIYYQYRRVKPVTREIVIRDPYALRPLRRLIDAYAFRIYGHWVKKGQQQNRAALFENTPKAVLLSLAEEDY

With `COc1ccc2[nH]c3c4[nH]c5ccc(OC)cc5c4c4c(c3c2c1)C(=O)NC4=O` [GW296115], in the assay with RPS6KA3/RSK2, the “DiscoverX % Inhibition at 1 μM” value is reported as 84%. Further, the IC50 in assay [1] is 2 µM. Further, the inhibition at 1 µM came out at 75% on AXL; 82% on BRSK1 [2]; 78% on DAPK1; 83% on DCLK3/DCAMKL3; 75% on DMPK; 85% on NUAK1/ARK5. Besides, the inhibition at 1 µM on PHKG1 turned out to be 82%; on PIM2 it was 83%; on ROS1, 76%; at SGK3, 86%. In addition, the “Nanosyn % Inhibition at 1 μM” value on BRSK1 [3] is recorded as 102%; on PIM3, 83%.

These data come from paper PMC7522982, “PKIS deep dive yields a chemical starting point for dark kinases and a cell active BRSK2 inhibitor” (Scientific Reports, 2020).
